# Experiments:
# [1] = target: T1, human recombinant ALDH2 enzyme (Homo sapiens, UniProt P05091); assay: Test Example 1-2: ALDH2 activation effect (acetaldehyde oxidation rate, PicoProbe kit); assay type: biochemical; settings: ALDH2 1 μg/mL, 60 min measurement
# T1 construct: purchased Abcam ab87415
# T1 sequence (P05091 18-517): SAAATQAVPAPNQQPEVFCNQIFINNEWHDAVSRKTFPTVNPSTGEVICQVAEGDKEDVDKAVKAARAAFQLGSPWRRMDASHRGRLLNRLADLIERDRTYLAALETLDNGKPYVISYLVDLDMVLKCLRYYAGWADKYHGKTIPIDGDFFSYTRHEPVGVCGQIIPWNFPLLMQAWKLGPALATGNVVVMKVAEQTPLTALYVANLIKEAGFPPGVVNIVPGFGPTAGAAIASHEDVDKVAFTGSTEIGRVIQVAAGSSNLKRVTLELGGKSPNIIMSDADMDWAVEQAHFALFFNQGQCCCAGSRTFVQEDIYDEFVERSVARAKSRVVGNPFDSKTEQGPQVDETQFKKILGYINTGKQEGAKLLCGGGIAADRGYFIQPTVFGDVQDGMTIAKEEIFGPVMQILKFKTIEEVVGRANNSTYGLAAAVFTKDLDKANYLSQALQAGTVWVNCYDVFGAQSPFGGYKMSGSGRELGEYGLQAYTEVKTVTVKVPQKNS
# Protocol: (§1) The activation effect of each test compound on the acetaldehyde oxidation rate of ALDH2 was measured with the following method. A test was conducted by using a commercially available PicoProbe™ Aldehyde dehydrogenase Activity Assay Kit (manufactured by Abcam) with reference to an instruction attached to the product under the following conditions. To each well of a 384-well plate, the following (1) to (3) were sequentially added with a pipette: • (1) 10 μL of solution obtained by dissolving and diluting a human recombinant ALDH2 enzyme (manufactured by Abcam, product number: ab87415) with ALDH assay Buffer (final concentration: 1 μg/mL); • (2) 10 μL of 30 μM or 90 μM test compound solution (with 3% DMSO) prepared by using ALDH assay Buffer; and • (3) 10 μL of Reaction mix composed with ratio of 7.3 μL of ALDH assay Buffer, 0.6 μL of PicoProbe, 0.6 μL of Substrate Mix, and 1.5 μL of Acetaldehyde.
# (§2) Before addition of (3), incubation was performed at room temperature for 5 minutes. After addition of (3), fluorescence intensity was measured at room temperature every 2.5 minutes over a period of 60 minutes by using an EnVision (manufactured by PerkinElmer Inc.) to determine the oxidation rate. Wavelengths of 535 nm and 587 nm were used for fluorescence intensities of excitation and emission, respectively.
# [2] = Test Example 2: Metabolic stability with mouse hepatic microsomes; assay type: in vitro ADME; settings: after 30 minutes, 37° C., NADPH; note: tested at 0.99 µM
# Protocol: Metabolic stability in mouse hepatic microsomes was evaluated with the following method.
# • (1) Mouse hepatic microsomes: 20 mg/mL • (2) Test compound: 1.1 mM DMSO solution • (3) Potassium phosphate buffer solution: 66.7 mM (pH 7.4) • (4) NADPH solution: 10 mM in potassium phosphate buffer solution • (5) Quenching solution: 0.5% formic acid-acetonitrile solution with warfarin as internal standard substance
# Into a propylene tube, 971.5 μL of the potassium phosphate buffer solution and 27.5 μL of the mouse hepatic microsomes were put, and suspended. Thereto, 1 μL of a test compound was added, and 180 μL was taken from this mixture and transferred into another tube. The mixture was preincubated at 37° C. for 5 minutes, and 20 μL of the NADPH solution (for the case with an incubation time of 30 minutes) or 20 μL of the potassium phosphate buffer solution (for the case with an incubation time of 0 minutes) was then added thereto. After incubation, 200 μL of the quenching solution was added to terminate the reaction. Subsequently, centrifugation was performed at 3220×g for 20 minutes, and the concentration of the unchanged form of the test compound in 200 μL of the supernatant was measured with LC-MS/MS. On the basis of the peak area obtained for the unchanged form, the residual rate (%) of the unchanged form was calculated as that for the case with an incubation time of 0 minutes was assumed as 100%.
# [3] = Test Example 3: Metabolic stability with human hepatic microsomes; assay type: in vitro ADME; settings: human hepatic microsomes 0.1 mg protein/mL, 0.1 μmol/L test compound, after 30 minutes, 37° C.
# Protocol: For the compounds of Examples 1 to 9, which had been confirmed to have stability in the mouse hepatic microsome test, metabolic stability with human hepatic microsomes was measured. The specific method is as follows. • (1) Fifty microliter-portions were taken from 0.2 μmol/L test compound diluted with β-NADPH solution. • (2) Fifty microliters of 0.2 mg protein/mL human hepatic microsome solution was added to each (except for a sample with a reaction time of 0 minutes). • (3) Incubation was performed with shaking at 37° C. for 30 minutes (concentration in reaction sample: 0.1 μmol/L test compound, 0.1 mg protein/mL human hepatic microsome) • (4) After incubation, 400 μL of methanol was added to terminate the reaction. • (5) To the sample with a reaction time of 0 minutes, 50 μL of 0.2 mg protein/mL hepatic microsome solution was added. • (6) Each of the samples from (4) and (5) was left to stand at −20° C. for 30 minutes or longer, and then centrifuged at 4° C. and 3,000 rpm for approximately 10 minutes. • (7) The supernatant was subjected to measurement with LC/MS/MS, and, on the basis of the peak area obtained for the unchanged form, the residual rate (%) of the unchanged form was calculated as that for the case with an incubation time of 0 minutes was assumed as 100%.
# [4] = target: T1, human recombinant ALDH2 enzyme; assay: Test Example 1-1: ALDH2 activation effect (acetaldehyde oxidation rate, PicoProbe kit); assay type: biochemical; settings: ALDH2 2 μg/mL, 180 min measurement
# Protocol: as §1, with “by BioVision Inc.)” for “by Abcam)”, “concentration: 2” for “concentration: 1”, “of […]” for “of 7.3”, “PicoProbe, 0.3” for “PicoProbe, 0.6”
# as §2, with “180” for “60”, “EnSight” for “EnVision”
acetaldehyde oxidation rate (no test compound = 100%) ([1]; test compound 10 μM),acetaldehyde oxidation rate (no test compound = 100%) ([1]; test compound 30 μM),Residual rate (%) of unchanged form [2],Residual rate (%) of unchanged form [3],acetaldehyde oxidation rate (no test compound = 100%) ([4]; test compound 10 μM),acetaldehyde oxidation rate (no test compound = 100%) ([4]; test compound 30 μM),Compound
133%,155%,93%,>99%,,,"COc1ncc(CNC(=O)c2cc(-c3ncccc3[C@@H](C)O)ccc2F)cc1F (single isomer, unassigned) [Example 4, 2-fluoro-N-((5-fluoro-6-methoxypyridin-3-yl)methyl)-5-(3-(1-hydroxyethyl)pyridin-2-yl)benzamide]"
122%,170%,95%,92%,,,"COc1ncc(CNC(=O)c2cc(-c3ncccc3[C@@H](C)O)ccc2F)cc1F (single isomer, unassigned) [Example 5, 2-fluoro-N-((5-fluoro-6-methoxypyridin-3-yl)methyl)-5-(3-(1-hydroxyethyl)pyridin-2-yl)benzamide]"
220%,275%,<1%,,199%,225%,"O=C(NCc1ccc2c(c1)OCO2)c1c(Cl)cccc1Cl [Comparative Example 1, reference compound]"
,,6%,,,,"COc1ccc(CNC(=O)c2cc(-c3ncccc3CO)ccc2OCC2CC2)cc1F [Comparative Example 2, reference compound]"
,,1%,,,,"COCc1ccc(CNC(=O)c2c(Cl)cccc2Cl)cc1F [Comparative Example 3, reference compound]"
,,<1%,,,,"COCc1ccc(CNC(=O)c2c(Cl)cccc2Br)cc1F [Comparative Example 4, reference compound]"
,,<1%,,,,"COCc1ccc(CNC(=O)c2c(F)cccc2Cl)cc1F [Comparative Example 5, reference compound]"
,,1%,,,,"COCc1ccc(CNC(=O)c2c(F)cccc2F)cc1F [Comparative Example 6, reference compound]"
,,91%,96%,123%,130%,"COCc1ccc(CNC(=O)c2cc(-c3ncccc3CO)ccc2F)cn1 [Example 1, 2-Fluoro-5-(3-(hydroxymethyl)pyridin-2-yl)-N-((6-(methoxymethyl)pyridin-3-yl)methyl)benzamide]"
,,89%,>99%,150%,180%,"COc1ccc(CNC(=O)c2cc(-c3ncccc3CO)ccc2F)cn1 [Example 2, 2-Fluoro-5-(3-(hydroxymethyl)pyridin-2-yl)-N-((6-methoxypyridin-3-yl)methyl)benzamide]"
125%,139%,>99%,47%,,,"O=C(NCc1ccc(OC(F)F)nc1)c1cc(-c2ncccc2CO)ccc1F [Example 6, N-((6-(Difluoromethoxy)pyridin-3-yl)methyl)-2-fluoro-5-(3-(hydroxymethyl)pyridin-2-yl)benzamide]"
331%,415%,96%,89%,,,"CCOc1ncc(CNC(=O)c2cc(-c3ncccc3CO)ccc2F)cc1F [Example 7, N-((6-Ethoxy-5-fluoropyridin-3-yl)methyl)-2-fluoro-5-(3-(hydroxymethyl)pyridin-2-yl)benzamide]"
154%,224%,90%,>99%,,,"CC(C)Oc1ncc(CNC(=O)c2cc(-c3ncccc3CO)ccc2F)cc1F [Example 8, 2-Fluoro-N-((5-fluoro-6-isopropoxypyridin-3-yl)methyl)-5-(3-(hydroxymethyl)pyridin-2-yl)benzamide]"
182%,283%,92%,93%,,,"O=C(NCc1cnc(OC2CC2)c(F)c1)c1cc(-c2ncccc2CO)ccc1F [Example 9, N-((6-Cyclopropoxy-5-fluoropyridin-3-yl)methyl)-2-fluoro-5-(3-(hydroxymethyl)pyridin-2-yl)benzamide]"
